Some test systems named below: U251 CNS; NCI-H226 lung; HL-60(TB) leukemia; HOP-92 NSCLC; NCI-H522 lung; ACHN renal; SF-539 CNS; MOLT-4 leukemia; HCC-2998 colon.
Holding throughout (assay): NCI tumour cell line growth inhibition, 48 h

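Growth conditions: 96-well plates. Treatment: test compound, 48 hours, 5 concentrations. Analysis: linear interpolation between bracketing concentrations; unreached endpoints set to highest concentration. Abbreviation: GI50, concentration required for 50% inhibition of growth. TGI is the concentration that stops growth completely.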

With `CC1CCC(C#N)(NOC2=NCCN2)CC1` (centres undefined), the GI50 is 15.8 µM in the test on U251 CNS; 15.2 µM in the test on NCI-H226 lung; 34.5 µM in the test on HL-60(TB) leukemia; 35.4 µM in the test with HOP-92 NSCLC; 39.6 µM in the test on NCI-H522 lung; 15.2 µM in the test on ACHN renal. For the same compound, the results for the GI50 in the test with SF-539 CNS and in the test with MOLT-4 leukemia were 23.4 µM and 37.3 µM, respectively. Further, the TGI is 32.4 µM with U251 CNS; 34.1 µM in the test on NCI-H226 lung; above 100 µM with HL-60(TB) leukemia; 91.3 µM with HOP-92 NSCLC; above 100 µM with NCI-H522 lung; 30.1 µM with ACHN renal. Also, the TGI in the test on SF-539 CNS was 45.4 µM; in the test on MOLT-4 leukemia it was above 100 µM.
Take `O=c1cc(-c2ccc[nH]2)[nH]c2cc3c(cc12)OCO3`: the TGI in the test on HCC-2998 colon was 86.5 µM; with U251 CNS, above 100 µM; with NCI-H226 lung, above 100 µM; in the test with HL-60(TB) leukemia, 83.6 µM; with ACHN renal, above 100 µM; in the test on SF-539 CNS, 84.6 µM. In the test on MOLT-4 leukemia, the TGI was above 100 µM. Besides, in the test on NCI-H226 lung, the GI50 was 35.3 µM.
As to `c1cc(C2N3CCCN2CC3)ccn1` (centres undefined), the TGI is above 100 µM in the test with HCC-2998 colon; above 100 µM in the test with U251 CNS; above 100 µM with NCI-H226 lung; above 100 µM in the test on HL-60(TB) leukemia; 18.4 µM with NCI-H522 lung; above 100 µM in the test with ACHN renal. Also, in the test on MOLT-4 leukemia, the TGI is above 100 µM.
Turning to `O=C(O)CCc1nc(-c2ccccc2)c(-c2ccccc2)o1`, the TGI in the test on U251 CNS, with NCI-H226 lung, in the test with HL-60(TB) leukemia, with HOP-92 NSCLC, with NCI-H522 lung and in the test on ACHN renal was above 100 µM in each case. Also, the TGI in the test on SF-539 CNS and with MOLT-4 leukemia was above 100 µM throughout.
In the case of `Cc1ccc(C(=O)Nc2ccccc2C(=O)N/N=C(\c2ccccc2)c2ccccn2)cc1`, the GI50 is 0.381 µM in the test with HCC-2998 colon; 0.485 µM with U251 CNS; 0.895 µM with NCI-H226 lung; 6.27 µM in the test on HOP-92 NSCLC; 0.582 µM in the test with NCI-H522 lung; 0.166 µM with ACHN renal. The GI50 in the test on SF-539 CNS was 0.309 µM; in the test on MOLT-4 leukemia, 0.374 µM. Besides, the TGI in the test on HCC-2998 colon is above 100 µM; with U251 CNS, above 100 µM; with NCI-H226 lung, above 100 µM; in the test on HOP-92 NSCLC, above 100 µM; in the test with NCI-H522 lung it was above 100 µM; with ACHN renal it was above 25.9 µM. Besides, the values for the TGI in the test on SF-539 CNS and in the test with MOLT-4 leukemia were 6.95 µM and above 100 µM, respectively.
As for `O=C(Cc1nc2ccccc2s1)C(=O)Nc1ccc(Cl)cc1Cl`, the TGI in the test with HCC-2998 colon, in the test on U251 CNS, in the test with NCI-H226 lung, in the test with HOP-92 NSCLC, with ACHN renal and with SF-539 CNS was above 100 µM each time. The TGI in the test on MOLT-4 leukemia was above 100 µM.
Turning to `OCCCCC#Cc1ccccc1C#Cc1cccs1`, the GI50 with HCC-2998 colon is 18.3 µM; in the test on U251 CNS it was 13.9 µM; in the test on NCI-H226 lung it was 18.9 µM; in the test with HOP-92 NSCLC it was 14.1 µM; with NCI-H522 lung, 18.5 µM; in the test with ACHN renal, 15.5 µM. Also, the GI50 was 12.9 µM with SF-539 CNS and 18.8 µM in the test on MOLT-4 leukemia. Further, the TGI turned out to be 33.7 µM in the test with HCC-2998 colon; 27 µM in the test on U251 CNS; 43.6 µM in the test with NCI-H226 lung; 28.7 µM in the test with HOP-92 NSCLC; 35.6 µM with NCI-H522 lung; 28.8 µM with ACHN renal. Also, the results for the TGI in the test with SF-539 CNS and in the test with MOLT-4 leukemia were 25.9 µM and 40.3 µM, respectively.
Turning to `CCCCCC/C=C\CCCCCCCCCc1c(O)c(OC)cc(O)c1CN(C)C`, the TGI in the test with U251 CNS stood at 13.4 µM; in the test on NCI-H226 lung, 36.7 µM; with HL-60(TB) leukemia, 5.37 µM; in the test on NCI-H522 lung it was 3.25 µM; in the test on ACHN renal, 22.5 µM; in the test on SF-539 CNS, 22.2 µM. The compound further gave a TGI in the test on MOLT-4 leukemia of 4.5 µM.
Consider `C=C(CN(CCN1CCOCC1)CC(=C)c1ccc(C(=O)Nc2ccccc2N)cc1)c1ccc(C(=O)Nc2ccccc2N)cc1`, for which the GI50 was 0.874 µM in the test on HCC-2998 colon; 5.78 µM in the test with U251 CNS; 13 µM in the test with HL-60(TB) leukemia; 8.35 µM with HOP-92 NSCLC; 2.62 µM in the test on NCI-H522 lung; 6.04 µM in the test on ACHN renal. Further, the GI50 in the test on SF-539 CNS was 5.31 µM. The TGI was 3.05 µM in the test with HCC-2998 colon; 12.4 µM with U251 CNS; above 50 µM in the test on HL-60(TB) leukemia; 33.8 µM with HOP-92 NSCLC; 28.9 µM with NCI-H522 lung; 13.3 µM in the test with ACHN renal. In the test with SF-539 CNS, this compound had a TGI of 16.1 µM.
Turning to `Cc1ccc(C(=O)NC(C)C)cc1N=NN(C)C`, the TGI in the test with HCC-2998 colon, in the test with U251 CNS, in the test on HOP-92 NSCLC, in the test on NCI-H522 lung, with ACHN renal and with SF-539 CNS was above 100 µM each time.
Take `Cn1c(=O)c2[nH]cnc2n(CC(=O)O)c1=O`: the TGI with U251 CNS, in the test with NCI-H226 lung, in the test with HOP-92 NSCLC, in the test on NCI-H522 lung, in the test on ACHN renal and in the test with SF-539 CNS was above 100 µM in each case. In addition, in the test on MOLT-4 leukemia, the TGI is above 100 µM.
On to `O=C(O)C1=C(Cl)c2ccccc2S1(=O)=O`, for which the TGI was above 100 µM in the test with HCC-2998 colon; above 100 µM with HL-60(TB) leukemia; above 100 µM in the test with HOP-92 NSCLC; 40.7 µM in the test on NCI-H522 lung; above 100 µM with MOLT-4 leukemia.
As for `COC(=O)C1=C2CO[C@@H]3C[C@H]4C(C)(C)CCC[C@]4(C)C(=CC1)[C@]23C`, the GI50 was 43.4 µM in the test on U251 CNS; 56.5 µM with NCI-H226 lung; 8.2 µM in the test with HOP-92 NSCLC; 29.4 µM with NCI-H522 lung; 72 µM in the test with ACHN renal; 72.7 µM in the test on SF-539 CNS. Besides, the GI50 in the test on MOLT-4 leukemia was 5.48 µM. The TGI is above 100 µM in the test with U251 CNS; above 100 µM with NCI-H226 lung; 44.7 µM in the test on HOP-92 NSCLC; above 100 µM in the test with NCI-H522 lung; above 100 µM in the test on ACHN renal; above 100 µM in the test on SF-539 CNS. For the same compound, in the test with MOLT-4 leukemia, the TGI stood at 30.5 µM.
`COC(=O)c1cccc2c1Oc1ccccc1S2`: the TGI was above 100 µM in the test with U251 CNS; above 100 µM in the test with NCI-H226 lung; 28.9 µM in the test on HL-60(TB) leukemia; above 100 µM in the test with HOP-92 NSCLC; above 100 µM in the test with NCI-H522 lung; above 100 µM in the test with ACHN renal. Moreover, the TGI in the test with SF-539 CNS was above 100 µM; with MOLT-4 leukemia it was 70 µM.

(Values after PubChem BioAssay (NCI).)
